Laboratory results from the supplement of paper PMC10307832.

Columns and labels:
Experiment in all cases: relative viability (nuclei count vs DMSO), 5 days (fraction); higher = more cells survive
[1] = compound: CNC(=O)c1cc(Oc2ccc(NC(=O)Nc3ccc(Cl)c(C(F)(F)F)c3)cc2)ccn1 [Sorafenib] + COc1cc2c(Oc3ccc(NC(=O)C4(C(=O)Nc5ccc(F)cc5)CC4)cc3F)ccnc2cc1OCCCN1CCOCC1 [Foretinib] (partner 0.25 µM)
Summary of the method: (§1)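 Lung cancer cell lines in 1536-well plates got either a single drug or a fixed anchor-drug dose together with five library-drug doses (not always all listed) in √10 steps, by pin tool, on the day after seeding. Nuclei were counted after 5 days, and relative viability is the treated-to-vehicle ratio of nuclei counts. Values are medians of duplicate plates.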

[2] = compound: CNC(=O)c1cc(Oc2ccc(NC(=O)Nc3ccc(Cl)c(C(F)(F)F)c3)cc2)ccn1 [Sorafenib] + Cc1cc(Nc2cc(N3CCN(C)CC3)nc(Sc3ccc(NC(=O)C4CC4)cc3)n2)n[nH]1 [Tozasertib] (partner 0.1 µM)
Summary of the method: as §1

[3] = compound: CNC(=O)c1cc(Oc2ccc(NC(=O)Nc3ccc(Cl)c(C(F)(F)F)c3)cc2)ccn1 [Sorafenib] + CC(=O)Nc1cccc(-n2c(=O)n(C3CC3)c(=O)c3c(Nc4ccc(I)cc4F)n(C)c(=O)c(C)c32)c1 [Trametinib] (partner 0.02 µM)
Summary of the method: as §1

[4] = compound: CNC(=O)c1cc(Oc2ccc(NC(=O)Nc3ccc(Cl)c(C(F)(F)F)c3)cc2)ccn1 [Sorafenib] + CC(C)C[C@H](NC(=O)[C@H](Cc1ccccc1)NC(=O)c1cnccn1)B(O)O [Bortezomib] (partner 0.002 µM)
Summary of the method: as §1

[5] = compound: CNC(=O)c1cc(Oc2ccc(NC(=O)Nc3ccc(Cl)c(C(F)(F)F)c3)cc2)ccn1 [Sorafenib] + Nc1nc2[nH]cc(CCc3ccc(C(=O)N[C@@H](CCC(=O)O)C(=O)O)cc3)c2c(=O)[nH]1 [Pemetrexed] (partner 0.2 µM)
Summary of the method: as §1

Cell Line | relative viability ([1]; first compound 0.08 µM) | relative viability ([1]; first compound 0.253 µM) | relative viability ([1]; first compound 2.53 µM) | relative viability ([1]; first compound 8 µM) | relative viability ([2]; first compound 0.08 µM) | relative viability ([2]; first compound 0.253 µM) | relative viability ([2]; first compound 2.53 µM) | relative viability ([2]; first compound 8 µM) | relative viability ([3]; first compound 0.08 µM) | relative viability ([3]; first compound 0.253 µM) | relative viability ([3]; first compound 2.53 µM) | relative viability ([3]; first compound 8 µM) | relative viability ([4]; first compound 0.08 µM) | relative viability ([4]; first compound 0.253 µM) | relative viability ([4]; first compound 2.53 µM) | relative viability ([5]; first compound 0.08 µM) | relative viability ([5]; first compound 0.253 µM) | relative viability ([5]; first compound 2.53 µM) | relative viability ([5]; first compound 8 µM) | relative viability ([4]; first compound 8 µM)
HCC-827 | 1.1 | 0.981 | 1.02 | 1.02 | 0.423 | 0.471 | 0.421 | 0.45 | 0.547 | 0.582 | 0.457 | 0.422 | 1.06 | 1.04 | 0.929 | 0.255 | 0.288 | 0.281 | 0.251 | 
HCC-78 | 0.632 | 0.537 | 0.801 | 0.905 | 0.391 | 0.371 | 0.492 | 0.493 | 0.807 | 0.646 | 0.897 | 0.523 | 0.517 | 0.427 |  | 0.936 | 0.879 | 0.847 | 0.888 | 0.585
HCC-366 | 0.927 | 0.957 | 0.937 | 0.94 | 0.109 | 0.083 | 0.054 | 0.0297 | 0.403 | 0.436 | 0.331 | 0.226 | 1.05 | 0.98 | 0.991 | 0.158 | 0.124 | 0.127 | 0.174 | 0.831
HARA | 0.967 | 0.916 | 0.898 | 0.889 | 0.0919 | 0.137 | 0.146 | 0.1 | 0.626 |  | 0.233 | 0.228 | 1.18 | 1.02 | 1.16 | 0.246 | 0.237 | 0.257 | 0.233 | 1.02
CAL-12T | 1.39 | 1.05 | 1.03 | 0.868 | 0.354 | 0.284 | 0.271 | 0.219 | 0.5 | 0.312 | 0.339 | 0.213 | 1.04 | 0.689 | 1.24 | 1.22 | 1.1 | 1.01 | 1.13 | 0.465
NCI-H596 | 0.73 | 0.958 | 0.866 | 0.66 | 1.01 | 0.907 | 0.871 | 0.406 | 0.844 | 0.735 | 0.807 | 0.75 | 1.02 |  | 1.19 | 0.495 | 0.47 | 0.563 | 0.52 | 1.14
HCC-44 |  |  |  |  | 0.884 | 0.688 | 0.858 | 0.773 | 1.07 | 1.04 | 1.01 |  | 0.814 | 0.805 | 0.865 | 0.652 | 0.607 | 0.599 | 0.61 | 0.699
NCI-H1650 | 1.43 | 1.24 | 1.32 | 0.365 | 0.397 | 0.39 | 0.361 | 0.257 | 0.858 | 0.499 | 0.752 | 0.241 | 0.239 | 0.217 | 0.225 | 0.405 | 0.454 | 0.531 | 0.334 | 0.212
NCI-H1651 | 0.923 |  | 0.787 | 0.515 | 0.833 | 0.643 | 0.698 | 0.445 | 0.853 | 0.791 | 0.835 | 0.74 | 0.995 | 0.855 | 0.92 | 0.575 | 0.601 | 0.611 | 0.511 | 0.801
NCI-H1793 | 0.76 | 0.853 | 1.12 | 0.798 | 0.467 | 0.374 | 0.242 | 0.182 | 0.398 | 0.429 | 0.325 | 0.253 |  |  |  | 1.24 |  | 1.11 | 0.529 | 
PC-14 | 1.02 | 0.945 | 1.11 | 0.913 | 0.588 | 0.555 | 0.593 | 0.577 | 0.883 | 0.694 | 0.567 | 0.158 | 0.911 | 0.89 | 0.827 | 0.133 | 0.137 | 0.123 | 0.102 | 0.316
COR-L23 | 1.13 | 0.982 | 0.937 | 0.765 | 0.24 | 0.185 | 0.113 | 0.079 | 0.645 | 0.433 | 0.312 | 0.232 | 1.11 | 0.964 | 0.888 | 0.2 | 0.199 | 0.19 | 0.212 | 0.877
NCI-H2342 | 1 | 1 | 0.914 | 0.568 | 0.568 | 0.488 | 0.377 | 0.366 | 0.887 | 0.749 | 0.71 | 0.682 |  |  |  |  | 0.729 | 0.78 | 0.532 | 
NCI-H650 | 1.02 | 0.863 | 0.942 | 0.857 | 0.718 | 0.659 | 0.62 | 0.592 | 0.989 | 0.937 | 0.866 | 0.578 | 0.759 | 0.581 | 0.746 | 0.928 | 0.799 | 0.904 | 0.795 | 0.677
NCI-H2023 | 1.18 | 0.795 | 0.972 | 0.591 | 0.282 | 0.278 | 0.229 | 0.142 | 0.686 | 0.539 | 0.459 | 0.112 | 1.2 | 1.02 | 0.945 | 0.267 | 0.252 | 0.226 | 0.121 | 0.319
NCI-H2087 | 1.36 | 0.977 | 0.819 | 0.632 | 0.26 | 0.241 | 0.212 | 0.152 | 0.19 | 0.233 | 0.199 | 0.15 | 0.76 | 0.708 | 0.849 | 0.694 | 0.622 | 0.61 | 0.239 | 0.454
